Structures can show the parent of a compound that is named as a salt.
Tests used:
MCL-1 = MCL-1 (Homo sapiens, UniProt Q07820); settings: stated in background, WO 2019/222112; cited from earlier work
[1] = XRPD analysis of the sample post DVS (form change); type: physicochemical; settings: sample after DVS cycles at 25° C.
Description: X-ray powder diffraction (XRPD) analysis was conducted on a diffractometer (PANalytical XPERT-PRO, PANalytical B. V., Almelo, Netherlands) using copper radiation (Cu Kα, λ=1.541874). Samples were spread evenly on a zero-background sample plate. The generator was operated at a voltage of 45 kV and amperage of 40 mA. Slits were Soller 0.02 rad, antiscatter 1.0°, and divergence. Scans were performed from 2 to 40° 2−θ with a 0.0167 step size. Data analysis was performed using X'Pert Data Viewer V1.2d (PANalytical B.V., Almelo, Netherlands).
(§1) Hygroscopicity was studied using dynamic vapor sorption (DVS, TA Q5000 SA, TA Instruments, New Castle, DE or DVS, DVS Intrinsic, Surface Measurement Systems, London, UK). A sample (2-20 mg) was placed in an aluminum DVS pan and loaded on the sample side of the twin pan balance. The water sorption and desorption were studied as a function of relative humidity (RH) at 25° C. In 10% RH increments, the relative humidity was increased from 40% RH to 90% RH and then decreased back to 0%, followed by repeating the full cycle from 0% RH up to 90% RH and back to 0% RH. […] Data analysis was performed using Universal Analysis 2000 Version 4.5A (TA Instruments, New Castle, DE) for TA DVS runs and Microsoft Excel for SMS DVS runs.

[2] = Hygroscopicity by dynamic vapor sorption (DVS); type: physicochemical; settings: for hygroscopicity (DVS analysis, in words): 0% to 90% RH, about 25° C.; for water (moisture) absorbed by DVS: between 0% and 90% RH at about 25° C.
Description: as §1

[3] = Competitive slurries of polymorph forms in EtOH; type: physicochemical; settings: for outcome of competitive slurry with Form I: in EtOH

Sequence of MCL-1 (Q07820 whole entry, species assumed): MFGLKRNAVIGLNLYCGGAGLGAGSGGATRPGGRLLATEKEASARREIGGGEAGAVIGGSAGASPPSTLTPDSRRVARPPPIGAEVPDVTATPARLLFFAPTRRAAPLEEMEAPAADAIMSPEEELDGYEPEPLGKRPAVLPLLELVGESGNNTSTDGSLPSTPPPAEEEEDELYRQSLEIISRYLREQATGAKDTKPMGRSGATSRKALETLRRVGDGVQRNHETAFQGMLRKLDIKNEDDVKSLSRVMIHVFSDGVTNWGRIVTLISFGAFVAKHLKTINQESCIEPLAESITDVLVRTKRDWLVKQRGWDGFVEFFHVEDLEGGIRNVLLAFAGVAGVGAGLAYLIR

Row | SMILES | form change by XRPD post DVS [1] | hygroscopicity (DVS analysis, in words) [2] | water (moisture) absorbed by DVS [2] | outcome of competitive slurry with Form I [3] | relative stability versus other unsolvated/desolvated forms ([3]; competitive slurries in EtOH) | moisture rapidly absorbed at ambient conditions ([2]; ambient conditions) | MCL-1 inhibition (in words) (MCL-1)
1 | COc1nn(C)cc1C(=O)N[S@@]1(=O)=NC(=O)c2ccc3c(c2)N(C[C@@H]2CC[C@H]2[C@@H](OC)/C=C/C[C@H](C)C1)C[C@@]1(CCCc2cc(Cl)ccc21)CO3 [Compound 1] | – | – | – | – | – | – | effective MCL-1 inhibitor
2 | COc1nn(C)cc1C(=O)N[S@@]1(=O)=NC(=O)c2ccc3c(c2)N(C[C@@H]2CC[C@H]2[C@@H](OC)/C=C/C[C@H](C)C1)C[C@@]1(CCCc2cc(Cl)ccc21)CO3 [DEA Salt Form 1] | no form change | moderately hygroscopic | about 5.5 wt % | – | – | – | –
3 | COc1nn(C)cc1C(=O)N[S@@]1(=O)=NC(=O)c2ccc3c(c2)N(C[C@@H]2CC[C@H]2[C@@H](OC)/C=C/C[C@H](C)C1)C[C@@]1(CCCc2cc(Cl)ccc21)CO3 [Form IV] | – | – | – | full conversion to Form I | – | – | –
4 | COc1nn(C)cc1C(=O)N[S@@]1(=O)=NC(=O)c2ccc3c(c2)N(C[C@@H]2CC[C@H]2[C@@H](OC)/C=C/C[C@H](C)C1)C[C@@]1(CCCc2cc(Cl)ccc21)CO3 [Form III] | no form change | moderately hygroscopic | up to 5 wt % | full conversion to Form I | – | – | –

The next lines start with results.

Row | form change by XRPD post DVS [1] | hygroscopicity (DVS analysis, in words) [2] | water (moisture) absorbed by DVS [2] | outcome of competitive slurry with Form I [3] | relative stability versus other unsolvated/desolvated forms ([3]; competitive slurries in EtOH) | moisture rapidly absorbed at ambient conditions ([2]; ambient conditions) | SMILES | MCL-1 inhibition (in words) (MCL-1)
5 | no form change | slightly hygroscopic | about 1.4 wt % | – | higher stability | – | COc1nn(C)cc1C(=O)N[S@@]1(=O)=NC(=O)c2ccc3c(c2)N(C[C@@H]2CC[C@H]2[C@@H](OC)/C=C/C[C@H](C)C1)C[C@@]1(CCCc2cc(Cl)ccc21)CO3 [Form I] | –
6 | no form change | moderately hygroscopic | about 7.5 wt % | – | – | – | COc1nn(C)cc1C(=O)N[S@@]1(=O)=NC(=O)c2ccc3c(c2)N(C[C@@H]2CC[C@H]2[C@@H](OC)/C=C/C[C@H](C)C1)C[C@@]1(CCCc2cc(Cl)ccc21)CO3 [Na salt Form 1] | –
7 | no form change | slightly hygroscopic | up to 1.1 wt % | full conversion to Form I | – | – | COc1nn(C)cc1C(=O)N[S@@]1(=O)=NC(=O)c2ccc3c(c2)N(C[C@@H]2CC[C@H]2[C@@H](OC)/C=C/C[C@H](C)C1)C[C@@]1(CCCc2cc(Cl)ccc21)CO3 [Form II] | –
8 | no form change | moderately hygroscopic | about 11 wt % | – | – | 4-6 wt % | COc1nn(C)cc1C(=O)N[S@@]1(=O)=NC(=O)c2ccc3c(c2)N(C[C@@H]2CC[C@H]2[C@@H](OC)/C=C/C[C@H](C)C1)C[C@@]1(CCCc2cc(Cl)ccc21)CO3 [K Salt Form 1] | –

From patent US12162896B2, “Salts and polymorphs of certain MCL-1 inhibitors” (Gilead Sciences, Inc., priority 2022, dated 2024)
